Experimental data as given in patent US11969428B2, “Methods and pharmaceutical compositions for treating lymphoid malignancy” (priority 2011, dated 2024).

How the values were obtained:
Assay in all cases: Ambit KinomeScan screening
Format in all cases: binding
Conditions in all cases: CAL-130 10 μM
[1] = target: T1, ABL1(F317I) (Homo sapiens, UniProt P00519, F317I)
T1 construct: unspecified tag ("tagged kinases"); purchased Ambit (KinomeScan screening)
Procedure: (§1) CAL-130 (10 μM) was evaluated for its ability to prevent tagged kinases from interacting with immobilized “bait” ligand (Karaman et al., 2008). Results are reported as “% of control binding”, where lower numbers indicate stronger interactions with the tagged kinase. Values of >35% are considered “no hits”. PI3Kδ had the lowest percentage of control binding at 0.2% followed by PI3Kγ at 3.2% (See Table 1 below). These values indicate a high probability of a potent interaction. 353 kinases were assessed in the screen (Table 2).

[2] = target: T2, ADCK3 (Homo sapiens, UniProt Q8NI60)
T2 construct: purchased Ambit (KinomeScan screening)
Procedure: as §1

[3] = target: T3, AXL (Homo sapiens, UniProt P30530)
T3 construct: purchased Ambit (KinomeScan screening service)
Procedure: as §1

[4] = target: T4, CAMK1 (Homo sapiens, UniProt Q14012)
T4 construct: unspecified tag ("tagged kinases"); purchased Ambit (KinomeScan screening)
Procedure: as §1

[5] = target: T5, CLK3 (Homo sapiens, UniProt P49761)
T5 construct: purchased Ambit (KinomeScan screening service)
Procedure: as §1

[6] = target: T6, CLK4 (Homo sapiens, UniProt Q9HAZ1)
T6 construct: purchased Ambit (KinomeScan screening service)
Procedure: as §1

[7] = target: T7, CSNK1G2 (Homo sapiens, UniProt P78368)
T7 construct: purchased Ambit (KinomeScan screening service)
Procedure: as §1

[8] = target: T8, DDR2 (Homo sapiens, UniProt Q16832)
T8 construct: unspecified tag ("tagged kinases"); purchased Ambit (KinomeScan screening service)
Procedure: as §1

[9] = target: T9, EGFR(G719S) (Homo sapiens, UniProt P00533, G719S)
T9 construct: unspecified tag; purchased Ambit (KinomeScan screening service)
Procedure: as §1

[10] = target: T10, EGFR(L858R) (Homo sapiens, UniProt P00533, L858R)
T10 construct: unspecified tag; purchased Ambit (KinomeScan screening service)
Procedure: as §1

[11] = target: T11, EPHA3 (Homo sapiens, UniProt P29320)
T11 construct: purchased Ambit (KinomeScan screening service)
Procedure: as §1

[12] = target: T12, ERBB3 (Homo sapiens, UniProt P21860)
T12 construct: unspecified tag ("tagged kinases"); purchased Ambit (KinomeScan screening service)
Procedure: as §1

[13] = target: T13, ERN1 (Homo sapiens, UniProt O75460)
T13 construct: unspecified tag ("tagged kinases"); purchased Ambit (KinomeScan screening service)
Procedure: as §1

[14] = target: T14, IRAK3 (Homo sapiens, UniProt Q9Y616)
T14 construct: purchased Ambit (KinomeScan screening)
Procedure: as §1

[15] = target: T15, LATS2 (Homo sapiens, UniProt Q9NRM7)
T15 construct: unspecified tag ('tagged kinases'); purchased Ambit (KinomeScan screening service)
Procedure: as §1

[16] = target: T16, LIMK2 (Homo sapiens, UniProt P53671)
T16 construct: unspecified tag ('tagged kinases'); purchased Ambit (KinomeScan screening service)
Procedure: as §1

[17] = target: T17, LYN (Homo sapiens, UniProt P07948)
T17 construct: unspecified tag ('tagged kinases'); purchased Ambit (KinomeScan screening service)
Procedure: as §1

[18] = target: T18, MEK2 (Homo sapiens, UniProt P36507)
T18 construct: purchased Ambit (KinomeScan screening)
Procedure: as §1

[19] = target: T19, MEK3 (Homo sapiens, UniProt P46734)
T19 construct: purchased Ambit (KinomeScan screening)
Procedure: as §1

[20] = target: T20, MET(Y1235D) (Homo sapiens, UniProt P08581, Y1235D)
T20 construct: unspecified tag ('tagged kinases'); purchased Ambit (KinomeScan screening)
Procedure: as §1

[21] = target: T21, MLK1 (Homo sapiens, UniProt P80192)
T21 construct: unspecified tag ('tagged kinases'); purchased Ambit (KinomeScan screening)
Procedure: as §1

[22] = target: T22, PAK3 (Homo sapiens, UniProt O75914)
T22 construct: purchased Ambit (KinomeScan screening service)
Procedure: as §1

[23] = target: T23, PCTK1 (Homo sapiens, UniProt Q00536)
T23 construct: unspecified tag ('tagged kinases'); purchased Ambit (KinomeScan screening)
Procedure: as §1

[24] = target: T24, PRKG1 (Homo sapiens, UniProt Q13976)
T24 construct: tag (kind not specified); purchased Ambit (KinomeScan screening service)
Procedure: as §1

[25] = target: T25, SIK (Homo sapiens, UniProt P57059)
T25 construct: tag, kind not specified; purchased Ambit (KinomeScan screening service)
Procedure: as §1

[26] = target: T26, SRC (Homo sapiens, UniProt P12931)
T26 construct: tag, kind not specified; purchased Ambit (KinomeScan screening service)
Procedure: as §1

[27] = target: T27, STK39 (Homo sapiens, UniProt Q9UEW8)
T27 construct: tag (kind not specified); purchased Ambit (KinomeScan screening service)
Procedure: as §1

[28] = target: T28, TBK1 (Homo sapiens, UniProt Q9UHD2)
T28 construct: tag (kind not specified); purchased Ambit (KinomeScan screening service)
Procedure: as §1

[29] = target: T29, TEC (Homo sapiens, UniProt P42680)
T29 construct: unspecified tag (tagged kinase); purchased Ambit (KinomeScan screening)
Procedure: as §1

[30] = target: T30, TNIK (Homo sapiens, UniProt Q9UKE5)
T30 construct: unspecified tag (tagged kinase); purchased Ambit (KinomeScan screening)
Procedure: as §1

[31] = target: T31, TNK1 (Homo sapiens, UniProt Q13470)
T31 construct: unspecified tag (tagged kinase); purchased Ambit (KinomeScan screening)
Procedure: as §1

[32] = target: T32, TNK2 (Homo sapiens, UniProt Q07912)
T32 construct: unspecified tag (tagged kinase); purchased Ambit (KinomeScan screening)
Procedure: as §1

[33] = target: T33, TRKB (Homo sapiens, UniProt Q16620)
T33 construct: tag, kind not specified; purchased Ambit (KinomeScan screening service)
Procedure: as §1

[34] = target: T34, TYK2(JH2domain) (Homo sapiens, UniProt P29597)
T34 construct: TYK2(JH2domain); tag, kind not specified; purchased Ambit (KinomeScan screening service)
Procedure: as §1

[35] = target: T35, ULK1 (Homo sapiens, UniProt O75385)
T35 construct: tag, kind not specified; purchased Ambit (KinomeScan screening service)
Procedure: as §1

[36] = target: T36, YSK1 (Homo sapiens, UniProt O00506)
T36 construct: purchased Ambit (KinomeScan screening service)
Procedure: as §1

Measured: Percent of Control Binding

T30 sequence (Q9UKE5 whole entry): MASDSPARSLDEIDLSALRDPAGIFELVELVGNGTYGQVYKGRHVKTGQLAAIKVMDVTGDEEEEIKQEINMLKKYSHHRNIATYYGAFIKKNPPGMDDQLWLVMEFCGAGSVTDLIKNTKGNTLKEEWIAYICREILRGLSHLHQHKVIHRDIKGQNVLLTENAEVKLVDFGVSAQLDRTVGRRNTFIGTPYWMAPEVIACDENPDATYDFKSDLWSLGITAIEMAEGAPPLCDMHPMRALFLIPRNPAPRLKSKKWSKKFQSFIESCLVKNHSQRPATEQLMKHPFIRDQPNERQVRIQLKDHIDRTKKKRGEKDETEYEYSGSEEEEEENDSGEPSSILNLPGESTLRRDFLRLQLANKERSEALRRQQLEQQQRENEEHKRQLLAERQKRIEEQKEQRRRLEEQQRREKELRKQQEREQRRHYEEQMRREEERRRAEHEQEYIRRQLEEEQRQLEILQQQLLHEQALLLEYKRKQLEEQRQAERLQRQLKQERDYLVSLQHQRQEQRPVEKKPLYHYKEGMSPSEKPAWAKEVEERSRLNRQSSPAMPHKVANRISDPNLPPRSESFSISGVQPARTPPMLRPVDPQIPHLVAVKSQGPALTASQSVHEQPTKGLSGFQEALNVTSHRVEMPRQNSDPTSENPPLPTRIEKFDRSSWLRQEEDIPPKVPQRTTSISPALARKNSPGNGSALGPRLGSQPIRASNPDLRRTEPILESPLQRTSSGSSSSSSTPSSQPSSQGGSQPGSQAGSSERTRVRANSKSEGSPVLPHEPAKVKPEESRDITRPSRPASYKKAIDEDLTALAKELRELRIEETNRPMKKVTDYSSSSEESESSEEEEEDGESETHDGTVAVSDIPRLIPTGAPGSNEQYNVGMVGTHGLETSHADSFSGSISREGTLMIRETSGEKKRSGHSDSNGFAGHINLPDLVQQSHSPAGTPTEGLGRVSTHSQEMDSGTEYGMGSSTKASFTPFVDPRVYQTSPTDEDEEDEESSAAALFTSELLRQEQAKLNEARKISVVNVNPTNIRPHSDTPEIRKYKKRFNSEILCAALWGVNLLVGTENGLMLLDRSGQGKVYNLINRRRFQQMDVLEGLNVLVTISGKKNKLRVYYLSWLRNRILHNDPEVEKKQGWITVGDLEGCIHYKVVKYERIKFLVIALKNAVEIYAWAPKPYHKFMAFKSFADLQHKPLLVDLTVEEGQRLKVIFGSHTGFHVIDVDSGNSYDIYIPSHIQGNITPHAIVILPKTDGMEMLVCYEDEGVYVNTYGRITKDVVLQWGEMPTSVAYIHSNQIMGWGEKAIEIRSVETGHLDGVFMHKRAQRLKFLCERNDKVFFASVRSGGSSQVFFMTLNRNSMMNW
T1 sequence (P00519 whole entry F317I): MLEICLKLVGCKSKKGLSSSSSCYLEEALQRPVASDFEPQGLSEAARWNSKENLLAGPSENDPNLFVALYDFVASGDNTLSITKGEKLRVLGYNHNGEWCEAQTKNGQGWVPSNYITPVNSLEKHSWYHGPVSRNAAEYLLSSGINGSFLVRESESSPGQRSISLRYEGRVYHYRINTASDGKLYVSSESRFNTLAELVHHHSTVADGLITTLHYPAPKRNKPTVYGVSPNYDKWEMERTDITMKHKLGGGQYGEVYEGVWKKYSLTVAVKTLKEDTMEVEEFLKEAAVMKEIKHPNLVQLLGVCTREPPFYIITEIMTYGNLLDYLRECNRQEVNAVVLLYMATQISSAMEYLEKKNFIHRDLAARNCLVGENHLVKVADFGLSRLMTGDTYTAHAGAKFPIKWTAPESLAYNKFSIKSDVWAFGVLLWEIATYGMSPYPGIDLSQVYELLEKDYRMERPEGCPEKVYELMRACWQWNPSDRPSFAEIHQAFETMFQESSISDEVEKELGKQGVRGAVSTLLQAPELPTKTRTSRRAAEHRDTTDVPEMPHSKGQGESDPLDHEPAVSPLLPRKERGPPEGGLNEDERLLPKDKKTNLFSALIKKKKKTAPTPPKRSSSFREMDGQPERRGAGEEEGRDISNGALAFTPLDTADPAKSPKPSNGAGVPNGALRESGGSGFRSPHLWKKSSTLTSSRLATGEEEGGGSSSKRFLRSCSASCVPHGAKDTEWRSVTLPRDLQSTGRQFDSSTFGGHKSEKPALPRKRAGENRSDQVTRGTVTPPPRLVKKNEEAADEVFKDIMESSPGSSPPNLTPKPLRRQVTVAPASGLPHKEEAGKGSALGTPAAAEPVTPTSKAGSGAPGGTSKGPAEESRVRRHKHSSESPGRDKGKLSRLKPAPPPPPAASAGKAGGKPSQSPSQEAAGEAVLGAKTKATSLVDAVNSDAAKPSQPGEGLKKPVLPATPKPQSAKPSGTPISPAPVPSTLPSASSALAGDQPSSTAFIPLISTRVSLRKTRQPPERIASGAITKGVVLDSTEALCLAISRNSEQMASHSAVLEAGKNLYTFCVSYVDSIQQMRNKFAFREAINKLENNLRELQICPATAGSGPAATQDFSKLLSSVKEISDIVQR
T25 sequence (P57059 whole entry): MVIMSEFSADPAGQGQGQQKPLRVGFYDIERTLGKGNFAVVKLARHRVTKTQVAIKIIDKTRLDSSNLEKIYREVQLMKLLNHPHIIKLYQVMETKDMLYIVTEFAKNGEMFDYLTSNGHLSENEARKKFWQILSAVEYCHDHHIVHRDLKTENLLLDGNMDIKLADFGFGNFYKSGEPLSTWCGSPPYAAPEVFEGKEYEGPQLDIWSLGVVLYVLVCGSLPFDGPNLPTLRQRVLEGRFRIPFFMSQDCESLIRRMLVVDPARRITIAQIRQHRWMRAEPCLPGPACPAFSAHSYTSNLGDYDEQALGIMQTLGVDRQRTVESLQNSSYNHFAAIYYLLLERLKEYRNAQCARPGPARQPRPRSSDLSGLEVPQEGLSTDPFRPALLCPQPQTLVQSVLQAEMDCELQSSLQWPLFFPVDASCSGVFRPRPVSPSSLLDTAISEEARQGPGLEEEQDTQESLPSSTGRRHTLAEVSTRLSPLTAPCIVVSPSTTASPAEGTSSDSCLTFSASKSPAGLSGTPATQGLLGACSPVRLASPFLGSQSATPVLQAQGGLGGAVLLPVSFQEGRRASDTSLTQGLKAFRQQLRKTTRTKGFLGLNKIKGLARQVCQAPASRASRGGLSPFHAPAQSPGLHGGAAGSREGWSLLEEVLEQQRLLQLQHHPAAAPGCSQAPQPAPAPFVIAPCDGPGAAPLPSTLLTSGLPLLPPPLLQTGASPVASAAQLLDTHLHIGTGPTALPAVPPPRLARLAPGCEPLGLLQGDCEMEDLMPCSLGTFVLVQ
T28 sequence (Q9UHD2 whole entry): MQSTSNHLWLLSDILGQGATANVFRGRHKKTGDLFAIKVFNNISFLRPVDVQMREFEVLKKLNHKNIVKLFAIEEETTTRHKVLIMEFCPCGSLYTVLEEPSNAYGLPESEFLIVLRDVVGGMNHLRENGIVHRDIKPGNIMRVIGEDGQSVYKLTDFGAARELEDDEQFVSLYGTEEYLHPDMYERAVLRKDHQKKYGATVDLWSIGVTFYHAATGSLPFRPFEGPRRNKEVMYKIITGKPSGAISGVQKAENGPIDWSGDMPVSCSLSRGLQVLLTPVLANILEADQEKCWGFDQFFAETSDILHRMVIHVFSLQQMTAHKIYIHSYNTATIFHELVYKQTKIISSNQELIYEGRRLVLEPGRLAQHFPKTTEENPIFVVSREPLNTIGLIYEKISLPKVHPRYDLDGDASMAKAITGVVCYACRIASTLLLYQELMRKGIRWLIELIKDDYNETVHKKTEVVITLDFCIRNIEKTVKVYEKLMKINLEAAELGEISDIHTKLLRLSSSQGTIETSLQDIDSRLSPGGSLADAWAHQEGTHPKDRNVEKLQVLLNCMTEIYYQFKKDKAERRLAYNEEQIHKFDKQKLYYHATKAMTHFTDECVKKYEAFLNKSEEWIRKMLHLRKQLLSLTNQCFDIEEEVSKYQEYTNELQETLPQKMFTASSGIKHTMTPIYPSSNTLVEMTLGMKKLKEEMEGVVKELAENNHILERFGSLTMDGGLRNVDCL
T33 sequence (Q16620 32-822): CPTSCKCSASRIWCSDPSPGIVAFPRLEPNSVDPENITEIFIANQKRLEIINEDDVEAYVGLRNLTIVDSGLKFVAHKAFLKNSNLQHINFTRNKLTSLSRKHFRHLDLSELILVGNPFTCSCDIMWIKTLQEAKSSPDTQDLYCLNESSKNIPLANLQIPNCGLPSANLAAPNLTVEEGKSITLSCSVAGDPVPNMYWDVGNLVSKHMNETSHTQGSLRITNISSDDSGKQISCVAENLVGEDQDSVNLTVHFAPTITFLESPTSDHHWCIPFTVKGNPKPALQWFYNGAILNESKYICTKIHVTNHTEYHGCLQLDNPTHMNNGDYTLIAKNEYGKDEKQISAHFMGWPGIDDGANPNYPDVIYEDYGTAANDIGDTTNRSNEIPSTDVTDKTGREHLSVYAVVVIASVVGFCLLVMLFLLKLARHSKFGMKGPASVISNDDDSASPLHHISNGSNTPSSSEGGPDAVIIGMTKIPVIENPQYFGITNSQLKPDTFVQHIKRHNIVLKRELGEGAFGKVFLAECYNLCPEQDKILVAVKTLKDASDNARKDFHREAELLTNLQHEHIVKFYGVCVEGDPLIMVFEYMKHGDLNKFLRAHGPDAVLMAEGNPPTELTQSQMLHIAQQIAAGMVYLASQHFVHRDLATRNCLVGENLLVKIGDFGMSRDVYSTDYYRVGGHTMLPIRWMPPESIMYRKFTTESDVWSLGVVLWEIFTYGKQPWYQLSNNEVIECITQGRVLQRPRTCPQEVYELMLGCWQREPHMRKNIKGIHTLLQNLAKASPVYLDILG
T34 sequence (P29597 589-875 limits assumed): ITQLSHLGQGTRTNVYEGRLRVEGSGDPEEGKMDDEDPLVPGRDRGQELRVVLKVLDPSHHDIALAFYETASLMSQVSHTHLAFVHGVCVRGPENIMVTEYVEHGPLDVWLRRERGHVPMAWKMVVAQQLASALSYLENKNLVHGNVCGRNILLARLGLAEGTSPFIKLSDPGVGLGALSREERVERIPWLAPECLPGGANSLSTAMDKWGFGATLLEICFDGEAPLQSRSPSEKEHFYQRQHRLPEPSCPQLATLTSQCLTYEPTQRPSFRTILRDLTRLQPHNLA

Cc1ccccc1-n1c(C(C)Nc2nc(N)nc3nc[nH]c23)nc2cccc(C)c2c1=O (stereo not drawn) [CAL-130]
100%: all assays above
